# Results as given in PubChem BioAssay (NCI).
#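 Growth conditions: 96-well plates. Treatment: test compound, 48 hours, 5 concentrations. Analysis: linear interpolation between bracketing concentrations; unreached endpoints set to highest concentration. TGI: total growth inhibition.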
# Columns and labels:
# Assay in all cases: NCI anticancer screen, dose series, 48 h
# 786-0 renal = tested on: 786-0 renal
# A498 renal = tested on: A498 renal
# A549 NSCLC = tested on: A549 NSCLC
# ACHN renal = tested on: ACHN renal
# BT-549 breast = tested on: BT-549 breast
# CAKI-1 renal = tested on: CAKI-1 renal
# CCRF-CEM leukemia = tested on: CCRF-CEM leukemia
# COLO 205 colon = tested on: COLO 205 colon
# DU-145 prostate = tested on: DU-145 prostate
# EKVX NSCLC = tested on: EKVX NSCLC
# HCC-2998 colon = tested on: HCC-2998 colon
# HCT-116 colon = tested on: HCT-116 colon
# HCT-15 colon = tested on: HCT-15 colon
# HOP-62 NSCLC = tested on: HOP-62 NSCLC
# HOP-92 NSCLC = tested on: HOP-92 NSCLC
# HT29 colon = tested on: HT29 colon
# IGROV1 ovarian = tested on: IGROV1 ovarian
# K-562 leukemia = tested on: K-562 leukemia
# KM12 colon = tested on: KM12 colon
# M14 melanoma = tested on: M14 melanoma
# MCF7 breast = tested on: MCF7 breast
# MDA-MB-231 breast = tested on: MDA-MB-231 breast
# MDA-MB-435 = tested on: MDA-MB-435
# MDA-N = tested on: MDA-N
# MOLT-4 leukemia = tested on: MOLT-4 leukemia
# NCI-H226 lung = tested on: NCI-H226 lung
# NCI-H23 lung = tested on: NCI-H23 lung
# NCI-H460 lung = tested on: NCI-H460 lung
# NCI/ADR-RES ovarian = tested on: NCI/ADR-RES ovarian
# OVCAR-3 ovarian = tested on: OVCAR-3 ovarian
# OVCAR-4 ovarian = tested on: OVCAR-4 ovarian
# OVCAR-5 ovarian = tested on: OVCAR-5 ovarian
# OVCAR-8 ovarian = tested on: OVCAR-8 ovarian
# PC-3 prostate = tested on: PC-3 prostate
# RPMI-8226 leukemia = tested on: RPMI-8226 leukemia
# RXF 393 renal = tested on: RXF 393 renal
# SF-295 CNS = tested on: SF-295 CNS
# SF-539 CNS = tested on: SF-539 CNS
# SK-MEL-2 melanoma = tested on: SK-MEL-2 melanoma
# SK-MEL-28 melanoma = tested on: SK-MEL-28 melanoma
# SK-OV-3 ovarian = tested on: SK-OV-3 ovarian
# SN12C renal = tested on: SN12C renal
# SNB-19 CNS = tested on: SNB-19 CNS
# SNB-75 CNS = tested on: SNB-75 CNS
# SR leukemia = tested on: SR leukemia
# SW-620 colon = tested on: SW-620 colon
# T-47D breast = tested on: T-47D breast
# U251 CNS = tested on: U251 CNS
# UACC-257 melanoma = tested on: UACC-257 melanoma
# UACC-62 melanoma = tested on: UACC-62 melanoma
# UO-31 renal = tested on: UO-31 renal
# HL-60(TB) leukemia = tested on: HL-60(TB) leukemia
# HS 578T breast = tested on: HS 578T breast
# LOX IMVI melanoma = tested on: LOX IMVI melanoma
# MALME-3M melanoma = tested on: MALME-3M melanoma
# NCI-H522 lung = tested on: NCI-H522 lung
# SF-268 CNS = tested on: SF-268 CNS
# SK-MEL-5 melanoma = tested on: SK-MEL-5 melanoma
# TK-10 renal = tested on: TK-10 renal
compound,measurement,setting,value
COc1ccc(/C=N/n2c(Cc3ccc(Cl)cc3)n[nH]c2=O)cc1,TGI,786-0 renal,54.6 µM
same,TGI,A498 renal,> 100 µM
same,TGI,A549 NSCLC,> 100 µM
same,TGI,ACHN renal,> 100 µM
same,TGI,BT-549 breast,> 100 µM
same,TGI,CAKI-1 renal,> 100 µM
same,TGI,CCRF-CEM leukemia,> 100 µM
same,TGI,COLO 205 colon,> 100 µM
same,TGI,DU-145 prostate,> 100 µM
same,TGI,EKVX NSCLC,> 100 µM
same,TGI,HCC-2998 colon,> 100 µM
same,TGI,HCT-116 colon,> 100 µM
same,TGI,HCT-15 colon,> 100 µM
same,TGI,HOP-62 NSCLC,33.9 µM
same,TGI,HOP-92 NSCLC,44.7 µM
same,TGI,HT29 colon,28.2 µM
same,TGI,IGROV1 ovarian,48 µM
same,TGI,K-562 leukemia,> 100 µM
same,TGI,KM12 colon,> 100 µM
same,TGI,M14 melanoma,> 100 µM
same,TGI,MCF7 breast,> 100 µM
same,TGI,MDA-MB-231 breast,26.6 µM
same,TGI,MDA-MB-435,> 100 µM
same,TGI,MDA-N,> 100 µM
same,TGI,MOLT-4 leukemia,> 100 µM
same,TGI,NCI-H226 lung,> 100 µM
same,TGI,NCI-H23 lung,> 100 µM
same,TGI,NCI-H460 lung,> 100 µM
same,TGI,NCI/ADR-RES ovarian,> 100 µM
same,TGI,OVCAR-3 ovarian,> 100 µM
same,TGI,OVCAR-4 ovarian,> 100 µM
same,TGI,OVCAR-5 ovarian,> 100 µM
same,TGI,OVCAR-8 ovarian,74.6 µM
same,TGI,PC-3 prostate,> 100 µM
same,TGI,RPMI-8226 leukemia,> 100 µM
same,TGI,RXF 393 renal,35.1 µM
same,TGI,SF-295 CNS,49.9 µM
same,TGI,SF-539 CNS,> 100 µM
same,TGI,SK-MEL-2 melanoma,61.5 µM
same,TGI,SK-MEL-28 melanoma,> 100 µM
same,TGI,SK-OV-3 ovarian,> 100 µM
same,TGI,SN12C renal,> 100 µM
same,TGI,SNB-19 CNS,35.6 µM
same,TGI,SNB-75 CNS,38.5 µM
same,TGI,SR leukemia,> 100 µM
same,TGI,SW-620 colon,> 100 µM
same,TGI,T-47D breast,> 100 µM
same,TGI,U251 CNS,33.6 µM
same,TGI,UACC-257 melanoma,> 100 µM
same,TGI,UACC-62 melanoma,> 100 µM
same,TGI,UO-31 renal,> 100 µM
CN(C)CCNC(=O)c1cc([N+](=O)[O-])ccn1,TGI,786-0 renal,> 100 µM
same,TGI,A498 renal,> 100 µM
same,TGI,A549 NSCLC,> 100 µM
same,TGI,ACHN renal,> 100 µM
same,TGI,BT-549 breast,> 100 µM
same,TGI,CAKI-1 renal,> 100 µM
same,TGI,CCRF-CEM leukemia,91.8 µM
same,TGI,COLO 205 colon,26.3 µM
same,TGI,DU-145 prostate,> 100 µM
same,TGI,EKVX NSCLC,> 100 µM
same,TGI,HCC-2998 colon,> 100 µM
same,TGI,HCT-116 colon,61.4 µM
same,TGI,HCT-15 colon,41 µM
same,TGI,HL-60(TB) leukemia,46.4 µM
same,TGI,HOP-62 NSCLC,> 100 µM
same,TGI,HS 578T breast,> 100 µM
same,TGI,HT29 colon,48.1 µM
same,TGI,IGROV1 ovarian,> 100 µM
same,TGI,K-562 leukemia,52.2 µM
same,TGI,KM12 colon,> 100 µM
same,TGI,LOX IMVI melanoma,96.9 µM
same,TGI,M14 melanoma,> 100 µM
same,TGI,MALME-3M melanoma,28 µM
same,TGI,MCF7 breast,31.3 µM
same,TGI,MDA-MB-231 breast,58.1 µM
same,TGI,MDA-MB-435,35.8 µM
same,TGI,MDA-N,30.7 µM
same,TGI,MOLT-4 leukemia,49.3 µM
same,TGI,NCI-H226 lung,> 100 µM
same,TGI,NCI-H23 lung,47.1 µM
same,TGI,NCI-H460 lung,> 100 µM
same,TGI,NCI-H522 lung,37.2 µM
same,TGI,OVCAR-3 ovarian,56.2 µM
same,TGI,OVCAR-4 ovarian,43 µM
same,TGI,OVCAR-5 ovarian,> 100 µM
same,TGI,OVCAR-8 ovarian,76.4 µM
same,TGI,PC-3 prostate,61.4 µM
same,TGI,RPMI-8226 leukemia,> 100 µM
same,TGI,RXF 393 renal,> 100 µM
same,TGI,SF-268 CNS,70.7 µM
same,TGI,SF-295 CNS,93.9 µM
same,TGI,SF-539 CNS,59.4 µM
same,TGI,SK-MEL-2 melanoma,67.5 µM
same,TGI,SK-MEL-28 melanoma,> 100 µM
same,TGI,SK-MEL-5 melanoma,41.5 µM
same,TGI,SK-OV-3 ovarian,> 100 µM
same,TGI,SN12C renal,64 µM
same,TGI,SNB-19 CNS,> 100 µM
same,TGI,SNB-75 CNS,> 100 µM
same,TGI,SR leukemia,> 100 µM
same,TGI,SW-620 colon,> 100 µM
same,TGI,T-47D breast,78.1 µM
same,TGI,TK-10 renal,> 100 µM
same,TGI,U251 CNS,92.8 µM
same,TGI,UACC-257 melanoma,29.8 µM
same,TGI,UACC-62 melanoma,42.3 µM
same,TGI,UO-31 renal,> 100 µM
